Columns and labels:
[1] = system: Rice weevil (Sitophilus oryzae); test: Fumigation test in glass vessel, rice weevils; format: in vivo; settings: SITTOR beetles; Example 3; gas 45.8 g/m^3, 17.2° C. (1st fumigation), 45.4 g/m^3, 17.7° C. (2nd); 54% rel. air humidity
Source text: (§1) a2) Rice weevil (Sitophilus oryzae)=SITTOR
(§2) The test organisms, separated by species, were placed into a glass vessel measuring 30 cm×30 cm×60 cm, which was sealed with a glass lid so as to be airtight. The adults and the larvae of the mealworm beetle (Tenebrio molitor) and the broad-horned flour beetle (Gnathocerus cornutus) were placed into small glass vessels approximately 5 cm in diameter, which were closed with a gauze lid and in which they could freely move about. The larvae of the rice weevil had burrowed into seeds of grain. The wood pest larvae were inserted into small blocks of wood measuring 5 cm×2.5 cm×2 cm. The openings were sealed with wads of cotton wool. Only one each of the larvae of the house longhorn beetle (Hylotrupes bajulus) was inserted into a piece of wood, while 6-8 larvae of the common furniture beetle (Anobium punctatum) were inserted into each piece of wood.
(§3) The respective gas was then introduced into the fumigation vessel through a gas line from a gas tank that contained the specified amount of gas. After a defined time period, the fumigation vessel was purged with compressed air. The discharged gas was purified by an attached gas scrubber.
(§4) The beetles were observed until they died. This point was recorded for each species. The larvae of the wood pests as well as the larvae of the rice weevil (Sitophilus oryzae) had to be picked out of the wood or the grain to check their condition. If any of the animals were still alive, the wooden test blocks remaining in the vessel were fumigated again and were reexamined after the corresponding time span had elapsed. The same number of animals in the untreated control was also checked at each point.
(§5) The vitality of the animals was checked at certain time intervals. The beetles could be observed through the fumigation vessel. This was also true for the larvae of the mealworm beetle and the broad-horned flour beetle. The wooden test blocks of the wood pest larvae were opened with hammer and chisel. Tweezers were used to pull the rice weevil larvae out of the grain seeds. The exact time intervals and the number of the evaluated pests were documented in the test results.

[2] = system: House longhorn beetle (Hylotrupes bajulus); test: Fumigation test in glass vessel, house longhorn beetles; format: in vivo; settings: HYLOBA beetles
Source text: (§6) b1) House longhorn beetle (Hylotrupes bajulus)=HYLOBA
as §2, §3, §4, §5

wood and storage pests = test: Fumigation test, wood and storage pests (overall statements); format: in vivo; settings: Conclusion of Examples 1-5
Source text: as §2, §3, §4, §5

[3] = system: Broad-horned flour beetle (Gnathocerus cornutus); test: Fumigation test in glass vessel, broad-horned flour beetles; format: in vivo; settings: GNATCO beetles; Example 3; gas 45.8 g/m^3, 17.2° C. (1st fumigation), 45.4 g/m^3, 17.7° C. (2nd); 54% rel. air humidity
Source text: (§7) a3) Broad-horned flour beetle (Gnathocerus cornutus)=GNATCO
as §2, §3, §4, §5

[4] = system: Common furniture beetle (Anobium punctatum) larvae; test: Fumigation test in glass vessel, common furniture beetle larvae in wood blocks; format: in vivo; settings: ANOBPU larvae in wood blocks
Source text: (§8) b2) Common furniture beetle (Anobium punctatum)=[…]
as §2, §3, §4, §5

[5] = system: Common furniture beetle (Anobium punctatum); test: Fumigation test in glass vessel, common furniture beetles; format: in vivo; settings: ANOBPU beetles
Source text: as §8, §2, §3, §4, §5

[6] = system: House longhorn beetle (Hylotrupes bajulus) larvae; test: Fumigation test in glass vessel, house longhorn beetle larvae in wood blocks; format: in vivo; settings: HYLOBA larvae in wood blocks
Source text: as §6, §2, §3, §4, §5

[7] = system: Rice weevil (Sitophilus oryzae) larvae; test: Fumigation test in glass vessel, rice weevil larvae in grain seeds; format: in vivo; settings: SITTOR larvae in grain seeds; Example 3; gas 45.8 g/m^3, 17.2° C. (1st fumigation), 45.4 g/m^3, 17.7° C. (2nd); 54% rel. air humidity
Source text: as §1, §2, §3, §4, §5

[8] = system: wood pests (house longhorn beetle, common furniture beetle); test: Fumigation test, wood pests; format: in vivo, Hylotrupes bajulus, Anobium punctatum
Source text: as §2, §3, §4, §5

[9] = system: Mealworm beetle (Tenebrio molitor); test: Fumigation test in glass vessel, mealworm beetles; format: in vivo; settings: TENEMO beetles; Example 3; gas 45.8 g/m^3, 17.2° C. (1st fumigation), 45.4 g/m^3, 17.7° C. (2nd); 54% rel. air humidity
Source text: (§9) a1) Mealworm beetle (Tenebrio molitor)=TENEMO
as §2, §3, §4, §5

[10] = system: Mealworm beetle (Tenebrio molitor) larvae; test: Fumigation test in glass vessel, mealworm beetle larvae; format: in vivo; settings: TENEMO larvae; Example 3; gas 45.8 g/m^3, 17.2° C. (1st fumigation), 45.4 g/m^3, 17.7° C. (2nd); 54% rel. air humidity
Source text: as §9, §2, §3, §4, §5

[11] = system: Broad-horned flour beetle (Gnathocerus cornutus) larvae; test: Fumigation test in glass vessel, broad-horned flour beetle larvae; format: in vivo; settings: GNATCO larvae; Example 3; gas 45.8 g/m^3, 17.2° C. (1st fumigation), 45.4 g/m^3, 17.7° C. (2nd); 54% rel. air humidity
Source text: as §7, §2, §3, §4, §5

[12] = system: Saw-toothed grain beetle (Oryzaephilus surinamensis); test: Fumigation test in glass vessel, saw-toothed grain beetles; format: in vivo; settings: ORYZSA beetles; Example 3; gas 45.8 g/m^3, 17.2° C. (1st fumigation), 45.4 g/m^3, 17.7° C. (2nd); 54% rel. air humidity
Source text: a4) Saw-toothed grain beetle (Oryzaephilus surinamensis)=ORYZSA
as §2, §3, §4, §5

[13] = Example 1, gas 54.8 g/m^3, 16° C. (1st fumigation), 58.0 g/m^3, 13° C. (2nd), 66% rel. air humidity
[14] = Example 2, ventilator operation in vessel, gas 57.6 g/m^3, 20.6° C. (1st fumigation), 48.0 g/m^3, 21.5° C. (2nd)

SMILES: O=C(F)C(F)(F)F [Trifluoroacetyl Fluoride, Trifluoroacetyl fluoride]
- Number alive, 1 hr. after Start of Fumigation [1]: 0
- Number dead, 1 hr. after Start of Fumigation [1]: 20
- Number alive, 1 hr. after Start of Fumigation [2, 13]: 2
- Number alive, 3 hrs. after Start of Fumigation [2, 13]: 0
- Number dead, 1 hr. after Start of Fumigation [2, 13]: 4
- Number dead, 3 hrs. after Start of Fumigation [2, 13]: 6
- Number alive, 1 hr. after Start of Fumigation [2, 14]: 1
- Number alive, 12 hrs. after Start of Fumigation [2, 14]: 0
- Number dead, 1 hr. after Start of Fumigation [2, 14]: 5
- Number dead, 12 hrs. after Start of Fumigation [2, 14]: 6
- Effectiveness against exposed beetles and larvae (wood and storage pests): very effective
- Number alive, 1 hr. after Start of Fumigation [3]: 0
- Number dead, 1 hr. after Start of Fumigation [3]: 15
- Number alive, 24 hrs. after Start of Fumigation [4, 13]: 10
- Number alive, 48 hrs. after Start of Fumigation [4, 13]: 6
- Number dead, 24 hrs. after Start of Fumigation [4, 13]: 0
- Number dead, 48 hrs. after Start of Fumigation [4, 13]: 4
- Number alive, 12 hrs. after Start of Fumigation [4, 14]: 11
- Number alive, 24 hrs. after Start of Fumigation [4, 14]: 10
- Number alive, 48 hrs. after Start of Fumigation [4, 14]: 0
- Number dead, 12 hrs. after Start of Fumigation [4, 14]: 1
- Number dead, 24 hrs. after Start of Fumigation [4, 14]: 2
- Number dead, 48 hrs. after Start of Fumigation [4, 14]: 12
- Number alive, 1 hr. after Start of Fumigation [5, 13]: 0
- Number dead, 1 hr. after Start of Fumigation [5, 13]: 6
- Number alive, 1 hr. after Start of Fumigation [5, 14]: 0
- Number dead, 1 hr. after Start of Fumigation [5, 14]: 6
- Number alive, 24 hrs. after Start of Fumigation [6, 13]: 6
- Number alive, 48 hrs. after Start of Fumigation [6, 13]: 3
- Number dead, 24 hrs. after Start of Fumigation [6, 13]: 0
- Number dead, 48 hrs. after Start of Fumigation [6, 13]: 3
- Number alive, 12 hrs. after Start of Fumigation [6, 14]: 7
- Number alive, 24 hrs. after Start of Fumigation [6, 14]: 7
- Number alive, 48 hrs. after Start of Fumigation [6, 14]: 6
- Number dead, 12 hrs. after Start of Fumigation [6, 14]: 0
- Number dead, 24 hrs. after Start of Fumigation [6, 14]: 0
- Number dead, 48 hrs. after Start of Fumigation [6, 14]: 1
- Number alive, 1 hr. after Start of Fumigation [7]: 5
- Number alive, 3 hrs. after Start of Fumigation [7]: 0
- Number dead, 1 hr. after Start of Fumigation [7]: 15
- Number dead, 3 hrs. after Start of Fumigation [7]: 20
- Time after which the animals became very active ([8]; Example 1, exposed beetles and larvae, gas 54.8 g/m^3, 16° C.): 1 to 2 min
- Time after which all the beetles lay on their backs, only legs and feelers moving slightly ([8]; Example 1, exposed beetles, gas 54.8 g/m^3, 16° C.): about 10 minutes
- Penetration of the wood to kill the larvae completely ([8]; Example 1, larvae in wooden test blocks, within a time span of 48 hours): does not penetrate the wood sufficiently
- Time after which larvae without wooden test blocks were dead ([8]; Example 1, larvae without wooden test blocks, gas 54.8 g/m^3, 16° C.): approximately 1 hour
- Effectiveness with respect to the larvae with ventilators ([8]; Example 2, air circulation through ventilators, compared with Example 1): no improvement in the effectiveness
- Number alive, 1 hr. after Start of Fumigation [9]: 0
- Number dead, 1 hr. after Start of Fumigation [9]: 15
- Number alive, 1 hr. after Start of Fumigation [10]: 0
- Number dead, 1 hr. after Start of Fumigation [10]: 15
- Number alive, 1 hr. after Start of Fumigation [11]: 0
- Number dead, 1 hr. after Start of Fumigation [11]: 15
- Number alive, 1 hr. after Start of Fumigation [12]: 0
- Number dead, 1 hr. after Start of Fumigation [12]: 15

— patent publication US20030017186A1, “Carboxylic acid fluorides as pesticides” (priority 1999, published 2003)
